The target in assay [1] is T1, farnesyl protein transferase (Homo sapiens, UniProt P49354+P49356). Put plainly: FPT IC50 (K-ras), inhibition of farnesyl protein transferase, in vitro enzyme assay. Type of assay: biochemical. The method, then: (§1) FPT IC50 (inhibition of farnesyl protein transferase, in vitro enzyme assay) and COS Cell IC50 (Cell-Based Assay) were determined following the assay procedures described in WO 95/10516, published April 20, 1995. GGPT IC50 (inhibition of geranylgeranyl protein transferase, in vitro enzyme assay), Cell Mat Assay, and anti-tumor activity (in vivo anti-tumor studies) could be determined by the assay procedures described in WO 95/10516. The disclosure of WO 95/10516 is incorporated herein by reference thereto.

Assay [2] concerns the target T1, farnesyl protein transferase. Put plainly: FPT IC50 (H-ras), inhibition of farnesyl protein transferase, in vitro enzyme assay. In kind it is biochemical. The method, then:
as §1

Assay [3] deals with COS Cell. Put plainly: COS Cell IC50 (Cell-Based Assay). The method, then: as §1
The subject of assay [4] is Human tumor cells. Kind of assay: Soft Agar Assay (anchorage-independent growth). Type of assay: cell-based. The method, then:
Anchorage-independent growth is a characteristic of tumorigenic cell lines. Human tumor cells are suspended in growth medium containing 0.3% agarose and an indicated concentration of a farnesyl transferase inhibitor. The solution is overlayed onto growth medium solidified with 0.6% agarose containing the same concentration of farnesyl transferase inhibitor as the top layer. After the top layer is solidified, plates are incubated for 10-16 days at 37°C under 5% CO2 to allow colony outgrowth. After incubation, the colonies are stained by overlaying the agar with a solution of MTT (3-[4,5-dimethyl-thiazol-2-yl]-2,5-diphenyltetrazolium bromide, Thiazolyl blue) (1 mg/mL in PBS). Colonies can be counted and the IC50's can be determined.

For 11 compounds, IC50 and inhibition results are on record in EP0927179B1, “SUBSTITUTED BENZOCYCLOHEPTAPYRIDINE DERIVATIVES USEFUL FOR INHIBITION OF FARNESYL PROTEIN TRANSFERASE” (SCHERING CORPORATION, priority 1996, dated 1998).

SMILES strings stand for the structures.

T1 sequence (P49356 whole entry, one chain of several): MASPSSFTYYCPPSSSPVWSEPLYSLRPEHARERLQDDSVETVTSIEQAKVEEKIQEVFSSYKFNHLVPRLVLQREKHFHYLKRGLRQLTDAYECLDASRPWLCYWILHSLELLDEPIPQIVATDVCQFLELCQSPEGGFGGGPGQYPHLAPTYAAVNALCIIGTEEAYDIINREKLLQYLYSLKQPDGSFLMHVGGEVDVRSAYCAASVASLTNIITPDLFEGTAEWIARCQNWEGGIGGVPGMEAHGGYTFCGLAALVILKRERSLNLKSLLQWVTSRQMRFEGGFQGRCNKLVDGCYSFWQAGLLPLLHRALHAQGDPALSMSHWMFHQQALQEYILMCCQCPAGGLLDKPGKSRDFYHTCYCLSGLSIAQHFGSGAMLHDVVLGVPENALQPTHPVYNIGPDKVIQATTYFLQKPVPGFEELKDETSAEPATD

With `Cn1cnc(S(=O)(=O)N2CCC(CC(=O)N3CCC([C@H]4c5ncc(Br)cc5CCc5cc(Cl)cc(Br)c54)CC3)CC2)c1` [Example 14], the figures for the IC50 in assay [1] and in assay [2] were 23 nM and 5.7 nM, respectively.
Consider `O=C(CC1CCN(S(=O)(=O)c2cccs2)CC1)N1CCC([C@H]2c3ncc(Br)cc3CCc3cc(Cl)cc(Br)c32)CC1` [Example 13], for which it took 20 nM to reach half-maximal inhibition in assay [2] (IC50).
Regarding `O=C(CC1CCN(S(=O)(=O)Cc2ccccc2)CC1)N1CCC([C@H]2c3ncc(Br)cc3CCc3cc(Cl)cc(Br)c32)CC1` [Example 9], the IC50 (commonly the concentration that inhibits the measured activity by half) in assay [3] was 350 nM.
Turning to `O=C(CC1CCN(S(=O)(=O)c2ccc(-c3ccccn3)s2)CC1)N1CCC([C@H]2c3ncc(Br)cc3CCc3cc(Cl)cc(Br)c32)CC1` [Example 12], the inhibition at […] in assay [2] (@73 nM, read-out: FPT inhibition (H-ras) at a single concentration) was 34%.
For the compound `CS(=O)(=O)N1CCC(CC(=O)N2CCN(C3c4ccc(Cl)cc4CCc4cc(Br)cnc43)CC2)CC1` (stereo not shown) [Example 15], the IC50 in assay [2] was determined as 54 nM.
`CN(C)S(=O)(=O)N1CCC(CC(=O)N2CCC([C@H]3c4ncc(Br)cc4CCc4cc(Cl)cc(Br)c43)CC2)CC1` [Example 3]: the IC50 in assay [1] came out at 10 nM; in assay [2], 7.3 nM; in assay [3], 9 nM; in assay [4], 100 nM.
Compound `CS(=O)(=O)N1CCC(CC(=O)N2CCC([C@H]3c4ncc(Br)cc4CCc4cc(Cl)cc(Br)c43)CC2)CC1` [Example 2] returned an IC50 in assay [4] of 50 nM.
For `O=C(CC1CCN(S(=O)(=O)c2ccccc2)CC1)N1CCC([C@H]2c3ncc(Br)cc3CCc3cc(Cl)cc(Br)c32)CC1` [Example 1], the IC50 in assay [2] was 72 nM.
Compound `CC1(C)C2CCC1(CS(=O)(=O)N1CCC(CC(=O)N3CCC([C@H]4c5ncc(Br)cc5CCc5cc(Cl)cc(Br)c54)CC3)CC1)C(=O)C2` (stereo partly shown) [Example 11] displayed an IC50 in assay [2] of 34.8 nM.
As for `NS(=O)(=O)N1CCC(CC(=O)N2CCN(C3c4ccc(Cl)cc4CCc4cc(Br)cnc43)CC2)CC1` (stereo not shown) [Example 16], it took 80 nM to reach half-maximal inhibition in assay [2] (IC50).
Regarding `CCCS(=O)(=O)N1CCC(CC(=O)N2CCC([C@H]3c4ncc(Br)cc4CCc4cc(Cl)cc(Br)c43)CC2)CC1` [Example 7], the IC50 in assay [3] amounted to 30 nM; in assay [4] it was 250 nM.
